Tested on: A375_aEGFR2
Test: pERK immunofluorescence normalised to no-drug reference (=1); higher = more ERK phosphorylation (less pathway inhibition)
Details: drug treatment time 24 h, EGF time 8 h
Experimental: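 A375 CRISPRa-EGFR (A375_aEGFR2) or HT29 cells were treated with two-drug dose combinations (vemurafenib, LY3009120, cobimetinib) for 24 h, then stimulated with EGF (100 ng/mL) or mock medium for 8 h. pERK (T202/Y204) was measured by immunofluorescence as the cytosolic population average, normalised to an untreated no-drug reference of the block (=1). Averages of 2 technical replicates. A375 in 5% FBS, HT29 in 10% FBS.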

CNc1ncc2cc(-c3cc(NC(=O)NCCC(C)(C)C)c(F)cc3C)c(C)nc2n1 + O=C(c1ccc(F)c(F)c1Nc1ccc(I)cc1F)N1CC(O)([C@@H]2CCCCN2)C1 [Cobimetinib]
pERK immunofluorescence normalised
Details | EGF 0 ng/mL | EGF 100 ng/mL
drug A concentration 0 µM, drug B concentration 31.62 pM | 1.06 | 0.985
drug A concentration 0 µM, drug B concentration 0.0001 µM | 1.04 | 0.985
drug A concentration 0 µM, drug B concentration 0.000316228 µM | 1.08 | 0.976
drug A concentration 0 µM, drug B concentration 0.001 µM | 0.997 | 0.964
drug A concentration 0 µM, drug B concentration 0.00316228 µM | 0.841 | 0.85
drug A concentration 0 µM, drug B concentration 0.01 µM | 0.546 | 0.726
drug A concentration 0 µM, drug B concentration 0.0316228 µM | 0.29 | 0.564
drug A concentration 0 µM, drug B concentration 0.1 µM | 0.243 | 0.541
drug A concentration 0 µM, drug B concentration 0.316228 µM | 0.235 | 0.428
drug A concentration 0 µM, drug B concentration 1 µM | 0.235 | 0.278
drug A concentration 0.0001 µM, drug B concentration 0 µM | 1.07 | 0.987
drug A concentration 0.0001 µM, drug B concentration 31.62 pM | 0.993 | 0.987
drug A concentration 0.0001 µM, drug B concentration 0.0001 µM | 1.05 | 1.01
drug A concentration 0.0001 µM, drug B concentration 0.000316228 µM | 1.01 | 0.946
drug A concentration 0.0001 µM, drug B concentration 0.001 µM | 0.966 | 0.944
drug A concentration 0.0001 µM, drug B concentration 0.00316228 µM | 0.816 | 0.848
drug A concentration 0.0001 µM, drug B concentration 0.01 µM | 0.498 | 0.692
drug A concentration 0.0001 µM, drug B concentration 0.0316228 µM | 0.284 | 0.606
drug A concentration 0.0001 µM, drug B concentration 0.1 µM | 0.242 | 0.545
drug A concentration 0.0001 µM, drug B concentration 0.316228 µM | 0.234 | 0.416
drug A concentration 0.0001 µM, drug B concentration 1 µM | 0.233 | 0.259
drug A concentration 0.000316228 µM, drug B concentration 0 µM | 1.05 | 1.03
drug A concentration 0.000316228 µM, drug B concentration 31.62 pM | 0.999 | 1.03
drug A concentration 0.000316228 µM, drug B concentration 0.0001 µM | 1.02 | 1.03
drug A concentration 0.000316228 µM, drug B concentration 0.000316228 µM | 1.01 | 0.998
drug A concentration 0.000316228 µM, drug B concentration 0.001 µM | 0.945 | 0.935
drug A concentration 0.000316228 µM, drug B concentration 0.00316228 µM | 0.829 | 0.882
drug A concentration 0.000316228 µM, drug B concentration 0.01 µM | 0.517 | 0.722
drug A concentration 0.000316228 µM, drug B concentration 0.0316228 µM | 0.298 | 0.611
drug A concentration 0.000316228 µM, drug B concentration 0.1 µM | 0.245 | 0.533
drug A concentration 0.000316228 µM, drug B concentration 0.316228 µM | 0.233 | 0.352
drug A concentration 0.000316228 µM, drug B concentration 1 µM | 0.233 | 0.234
drug A concentration 0.001 µM, drug B concentration 0 µM | 1.02 | 1
drug A concentration 0.001 µM, drug B concentration 31.62 pM | 0.985 | 0.999
drug A concentration 0.001 µM, drug B concentration 0.0001 µM | 1 | 0.937
drug A concentration 0.001 µM, drug B concentration 0.000316228 µM | 1.02 | 0.923
drug A concentration 0.001 µM, drug B concentration 0.001 µM | 0.892 | 0.935
drug A concentration 0.001 µM, drug B concentration 0.00316228 µM | 0.807 | 0.832
drug A concentration 0.001 µM, drug B concentration 0.01 µM | 0.498 | 0.709
drug A concentration 0.001 µM, drug B concentration 0.0316228 µM | 0.288 | 0.558
drug A concentration 0.001 µM, drug B concentration 0.1 µM | 0.238 | 0.444
drug A concentration 0.001 µM, drug B concentration 0.316228 µM | 0.233 | 0.258
drug A concentration 0.001 µM, drug B concentration 1 µM | 0.232 | 0.218
drug A concentration 0.00316228 µM, drug B concentration 0 µM | 0.921 | 0.917
drug A concentration 0.00316228 µM, drug B concentration 31.62 pM | 0.894 | 0.899
drug A concentration 0.00316228 µM, drug B concentration 0.0001 µM | 0.938 | 0.957
drug A concentration 0.00316228 µM, drug B concentration 0.000316228 µM | 0.912 | 0.905
drug A concentration 0.00316228 µM, drug B concentration 0.001 µM | 0.817 | 0.849
drug A concentration 0.00316228 µM, drug B concentration 0.00316228 µM | 0.675 | 0.753
drug A concentration 0.00316228 µM, drug B concentration 0.01 µM | 0.432 | 0.595
drug A concentration 0.00316228 µM, drug B concentration 0.0316228 µM | 0.275 | 0.439
drug A concentration 0.00316228 µM, drug B concentration 0.1 µM | 0.237 | 0.309
drug A concentration 0.00316228 µM, drug B concentration 0.316228 µM | 0.231 | 0.225
drug A concentration 0.00316228 µM, drug B concentration 1 µM | 0.232 | 0.214
drug A concentration 0.01 µM, drug B concentration 0 µM | 0.728 | 0.795
drug A concentration 0.01 µM, drug B concentration 31.62 pM | 0.777 | 0.778
drug A concentration 0.01 µM, drug B concentration 0.0001 µM | 0.787 | 0.8
drug A concentration 0.01 µM, drug B concentration 0.000316228 µM | 0.745 | 0.753
drug A concentration 0.01 µM, drug B concentration 0.001 µM | 0.613 | 0.674
drug A concentration 0.01 µM, drug B concentration 0.00316228 µM | 0.495 | 0.622
drug A concentration 0.01 µM, drug B concentration 0.01 µM | 0.31 | 0.454
drug A concentration 0.01 µM, drug B concentration 0.0316228 µM | 0.247 | 0.333
drug A concentration 0.01 µM, drug B concentration 0.1 µM | 0.24 | 0.245
drug A concentration 0.01 µM, drug B concentration 0.316228 µM | 0.231 | 0.216
drug A concentration 0.01 µM, drug B concentration 1 µM | 0.231 | 0.212
drug A concentration 0.0316228 µM, drug B concentration 0 µM | 0.503 | 0.601
drug A concentration 0.0316228 µM, drug B concentration 31.62 pM | 0.461 | 0.56
drug A concentration 0.0316228 µM, drug B concentration 0.0001 µM | 0.488 | 0.582
drug A concentration 0.0316228 µM, drug B concentration 0.000316228 µM | 0.466 | 0.546
drug A concentration 0.0316228 µM, drug B concentration 0.001 µM | 0.385 | 0.524
drug A concentration 0.0316228 µM, drug B concentration 0.00316228 µM | 0.314 | 0.441
drug A concentration 0.0316228 µM, drug B concentration 0.01 µM | 0.258 | 0.351
drug A concentration 0.0316228 µM, drug B concentration 0.0316228 µM | 0.239 | 0.263
drug A concentration 0.0316228 µM, drug B concentration 0.1 µM | 0.234 | 0.223
drug A concentration 0.0316228 µM, drug B concentration 0.316228 µM | 0.231 | 0.212
drug A concentration 0.0316228 µM, drug B concentration 1 µM | 0.231 | 0.218
drug A concentration 0.1 µM, drug B concentration 0 µM | 0.301 | 0.436
drug A concentration 0.1 µM, drug B concentration 31.62 pM | 0.293 | 0.419
drug A concentration 0.1 µM, drug B concentration 0.0001 µM | 0.302 | 0.422
drug A concentration 0.1 µM, drug B concentration 0.000316228 µM | 0.286 | 0.399
drug A concentration 0.1 µM, drug B concentration 0.001 µM | 0.273 | 0.373
drug A concentration 0.1 µM, drug B concentration 0.00316228 µM | 0.251 | 0.347
drug A concentration 0.1 µM, drug B concentration 0.01 µM | 0.238 | 0.281
drug A concentration 0.1 µM, drug B concentration 0.0316228 µM | 0.232 | 0.233
drug A concentration 0.1 µM, drug B concentration 0.1 µM | 0.231 | 0.215
drug A concentration 0.1 µM, drug B concentration 0.316228 µM | 0.23 | 0.211
drug A concentration 0.1 µM, drug B concentration 1 µM | 0.231 | 0.211
drug A concentration 0.316228 µM, drug B concentration 0 µM | 0.246 | 0.336
drug A concentration 0.316228 µM, drug B concentration 31.62 pM | 0.248 | 0.325
drug A concentration 0.316228 µM, drug B concentration 0.0001 µM | 0.25 | 0.339
drug A concentration 0.316228 µM, drug B concentration 0.000316228 µM | 0.246 | 0.317
drug A concentration 0.316228 µM, drug B concentration 0.001 µM | 0.245 | 0.298
drug A concentration 0.316228 µM, drug B concentration 0.00316228 µM | 0.238 | 0.272
drug A concentration 0.316228 µM, drug B concentration 0.01 µM | 0.235 | 0.234
drug A concentration 0.316228 µM, drug B concentration 0.0316228 µM | 0.232 | 0.216
drug A concentration 0.316228 µM, drug B concentration 0.1 µM | 0.232 | 0.211
drug A concentration 0.316228 µM, drug B concentration 0.316228 µM | 0.23 | 0.211
drug A concentration 0.316228 µM, drug B concentration 1 µM | 0.231 | 0.212
drug A concentration 1 µM, drug B concentration 0 µM | 0.239 | 0.26
drug A concentration 1 µM, drug B concentration 31.62 pM | 0.24 | 0.254
drug A concentration 1 µM, drug B concentration 0.0001 µM | 0.248 | 0.252
drug A concentration 1 µM, drug B concentration 0.000316228 µM | 0.238 | 0.246
drug A concentration 1 µM, drug B concentration 0.001 µM | 0.237 | 0.242
drug A concentration 1 µM, drug B concentration 0.00316228 µM | 0.236 | 0.246
drug A concentration 1 µM, drug B concentration 0.01 µM | 0.235 | 0.217
drug A concentration 1 µM, drug B concentration 0.0316228 µM | 0.233 | 0.223
drug A concentration 1 µM, drug B concentration 0.1 µM | 0.234 | 0.212
drug A concentration 1 µM, drug B concentration 0.316228 µM | 0.233 | 0.21
drug A concentration 1 µM, drug B concentration 1 µM | 0.234 | 0.217
drug A concentration 3.16228 µM, drug B concentration 0 µM | 0.245 | 0.227
drug A concentration 3.16228 µM, drug B concentration 31.62 pM | 0.243 | 0.224
drug A concentration 3.16228 µM, drug B concentration 0.0001 µM | 0.243 | 0.224
drug A concentration 3.16228 µM, drug B concentration 0.000316228 µM | 0.242 | 0.228
drug A concentration 3.16228 µM, drug B concentration 0.001 µM | 0.241 | 0.219
drug A concentration 3.16228 µM, drug B concentration 0.00316228 µM | 0.24 | 0.215
drug A concentration 3.16228 µM, drug B concentration 0.01 µM | 0.237 | 0.214
drug A concentration 3.16228 µM, drug B concentration 0.0316228 µM | 0.239 | 0.214
drug A concentration 3.16228 µM, drug B concentration 0.1 µM | 0.238 | 0.218
drug A concentration 3.16228 µM, drug B concentration 0.316228 µM | 0.238 | 0.213
drug A concentration 3.16228 µM, drug B concentration 1 µM | 0.239 | 0.215

— the supplement of paper PMC9912026
